Data from article PMC9760430, “A stapled chromogranin A-derived peptide homes in on tumors that express αvβ6 or αvβ8 integrins” (International Journal of Biological Sciences, 2023).
Peptide text beside a SMILES is read from it. * marks the point of attachment. X1 = CC1(C)C(/C=C/C2=C(Oc3ccc(S(=O)(=O)O)cc3)C(=C\C=C3/N(CCCCCC(=O)NCCN4C(=O)CC(*)C4=O)c4ccc(S(=O)(=O)O)cc4C3(C)C)/CCC2)=[N+](CCCCS(=O)(=O)O)c2ccc(S(=O)(=O)[O-])cc21

The molecules below were run against T1, murine αvβ6 (Mus musculus, UniProt P43406+Q9Z0T9) (assay: direct integrin binding assay of peptide-IRDye conjugates, murine αvβ6-coated plates). Conditions: plates coated with recombinant murine αvβ6; conjugate 0.01-100 nM, 1 h; bound NIR fluorescence; mean ± SE, n = 3 experiments.
T1 construct: purchased Bio-Techne
T1 sequence (P43406 31-988 limits assumed): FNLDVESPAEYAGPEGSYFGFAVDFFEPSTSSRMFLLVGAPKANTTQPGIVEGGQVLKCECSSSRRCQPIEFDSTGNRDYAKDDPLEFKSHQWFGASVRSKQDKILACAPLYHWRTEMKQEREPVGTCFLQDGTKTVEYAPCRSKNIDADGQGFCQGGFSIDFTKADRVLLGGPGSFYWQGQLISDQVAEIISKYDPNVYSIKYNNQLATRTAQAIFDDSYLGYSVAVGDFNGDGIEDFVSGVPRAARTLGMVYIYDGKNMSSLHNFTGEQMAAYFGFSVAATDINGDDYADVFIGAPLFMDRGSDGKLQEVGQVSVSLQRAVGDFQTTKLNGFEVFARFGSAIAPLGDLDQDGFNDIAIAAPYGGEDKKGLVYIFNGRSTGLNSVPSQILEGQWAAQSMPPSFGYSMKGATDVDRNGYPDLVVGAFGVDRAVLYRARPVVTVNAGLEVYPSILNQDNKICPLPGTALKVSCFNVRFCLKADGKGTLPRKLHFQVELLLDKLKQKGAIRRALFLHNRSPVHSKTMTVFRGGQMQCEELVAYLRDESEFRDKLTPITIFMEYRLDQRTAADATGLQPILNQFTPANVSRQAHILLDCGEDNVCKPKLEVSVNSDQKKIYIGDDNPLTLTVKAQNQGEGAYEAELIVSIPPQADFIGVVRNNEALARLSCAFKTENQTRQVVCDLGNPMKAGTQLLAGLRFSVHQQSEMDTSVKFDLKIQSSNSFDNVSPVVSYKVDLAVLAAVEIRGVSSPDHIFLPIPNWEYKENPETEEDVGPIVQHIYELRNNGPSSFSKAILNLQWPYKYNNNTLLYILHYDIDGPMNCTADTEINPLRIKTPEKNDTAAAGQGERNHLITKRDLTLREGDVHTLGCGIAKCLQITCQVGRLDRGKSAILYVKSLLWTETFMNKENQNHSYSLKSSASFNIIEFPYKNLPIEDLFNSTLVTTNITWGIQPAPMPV
T1 sequence (Q9Z0T9 22-707 limits assumed): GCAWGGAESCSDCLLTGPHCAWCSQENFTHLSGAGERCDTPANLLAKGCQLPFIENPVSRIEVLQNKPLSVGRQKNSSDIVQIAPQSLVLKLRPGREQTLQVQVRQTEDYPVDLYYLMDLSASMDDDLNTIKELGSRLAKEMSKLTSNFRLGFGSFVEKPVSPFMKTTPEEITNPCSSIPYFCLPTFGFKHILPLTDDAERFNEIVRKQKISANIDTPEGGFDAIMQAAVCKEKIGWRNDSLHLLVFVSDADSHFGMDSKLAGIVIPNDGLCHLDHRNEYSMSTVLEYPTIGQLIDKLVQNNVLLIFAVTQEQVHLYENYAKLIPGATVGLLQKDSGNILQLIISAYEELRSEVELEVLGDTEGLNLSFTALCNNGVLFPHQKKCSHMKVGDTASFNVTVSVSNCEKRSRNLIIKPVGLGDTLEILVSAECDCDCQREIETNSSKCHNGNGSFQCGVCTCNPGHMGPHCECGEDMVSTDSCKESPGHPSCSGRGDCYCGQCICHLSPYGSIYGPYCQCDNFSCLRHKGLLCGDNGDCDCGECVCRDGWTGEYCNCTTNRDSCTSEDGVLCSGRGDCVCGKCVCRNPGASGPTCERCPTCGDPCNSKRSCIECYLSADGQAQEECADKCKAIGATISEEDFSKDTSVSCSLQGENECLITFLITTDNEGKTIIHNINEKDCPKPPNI
Experimental: The affinity of peptide-IRDye conjugates for αvβ6 and αvβ8 integrins was determined by a direct binding assay using microtiter plates coated with αvβ6 or αvβ8 (Bio-Techne). After 1 h of incubation, the plates were washed; bound fluorescence was quantified by scanning the plates with an Odyssey CLx near-infrared fluorescence imaging system (LI-COR).
A control conjugate with a cysteine in place of the peptide was also prepared in parallel. The identity of the purified products, called 5a-IRDye, 2a-IRDye, and Cys-IRDye, was confirmed by mass spectrometry analysis (Table S1). In addition, the purity and identity of 5a-IRDye was monitored by liquid chromatography–mass spectrometry (LC-MS). […]
that the product consist of a single peak at 230 and 735 nm with the expected molecular weight (purity >95%) (Figure S3A).
The simplified molecular-input line-entry system (SMILES) of 5a-, 2a-, Cys- and 5a-Scr- […]
The concentration of each conjugate was quantified by spectrophotometric analysis at 774 nm (molar absorption coefficient, 240,000 M-1, cm-1) (Figure S3B). The final yield of 5a-IRDye […]
Binding of peptide-IRDye conjugates to avb6 and avb8 integrin
The binding affinity of peptide-IRDye conjugates for human and murine avb6 and avb8 integrins was determined as follows: 96-well clear-bottom black microtiter plates (Corning® cat. 3601) were coated with 2 μg/ml avb6 or avb8 (50 µl/well), in Dulbecco’s phosphate-buffered saline containing Ca2+ and Mg2+ (DPBS) and left to incubate overnight at 4°C. […]
The binding of peptide-IRDye conjugates to BxPC-3, 5M7101, and HUVECs cells was analyzed as follows. […]
conjugates were added to the microtiterplates and incubated at room temperature for 1 h (see Experimental Section). After washing, bound fluorescence was measured using an Odyssey CLx (LI-COR) scanner. Representative images of the scanned plates and quantification of binding are shown. […]

Going from `CC[C@H](C)[C@H](NC(=O)[C@H](CCCNC(=N)N)NC(=O)[C@H](CC(C)C)NC(=O)[C@H](CC(=O)O)NC(=O)CNC(=O)[C@H](CCCNC(=N)N)NC(=O)[C@H](CC(C)C)NC(=O)[C@@H](NC(=O)[C@H](CCC(=O)O)NC(=O)[C@H](Cc1ccccc1)NC(=O)[C@@H](N)CSC1CC(=O)N(CCNC(=O)CCCCCN2C(=CC=C3CCCC(C=CC4=[N+](CCCCS(=O)(=O)[O-])c5ccc(S(=O)(=O)O)cc5C4(C)C)=C3Oc3ccc(S(=O)(=O)O)cc3)C(C)(C)c3cc(S(=O)(=O)O)ccc32)C1=O)[C@@H](C)O)C(=O)N[C@@H](CC(C)C)C(=O)N[C@@H](CO)C(=O)N[C@H](C(=O)N[C@@H](CC(C)C)C(=O)N[C@@H](CCCNC(=N)N)C(=O)N[C@H]1Cc2cn(nn2)CCCC[C@@H](C(=O)N[C@@H](CCCCN)C(=O)N[C@@H](CCC(=O)O)C(=O)N[C@@H](CC(C)C)C(=O)N[C@@H](CCC(N)=O)C(=O)N[C@@H](CC(=O)O)C(N)=O)NC(=O)[C@H](CC(C)C)NC(=O)[C@H](CC(N)=O)NC(=O)[C@H](CCC(N)=O)NC1=O)[C@@H](C)CC` (stereo partly drawn) [5a-IRDye] to `CC[C@H](C)[C@H](NC(=O)[C@H](CCCNC(=N)N)NC(=O)[C@H](CCC(=O)O)NC(=O)[C@H](CCC(=O)O)NC(=O)CNC(=O)[C@H](CCCNC(=N)N)NC(=O)[C@H](CC(C)C)NC(=O)[C@@H](NC(=O)[C@H](CCC(=O)O)NC(=O)[C@H](Cc1ccccc1)NC(=O)[C@@H](N)CSC1CC(=O)N(CCNC(=O)CCCCCN2/C(=C\C=C3\CCCC(/C=C/C4=[N+](CCCCS(=O)(=O)O)c5ccc(S(=O)(=O)[O-])cc5C4(C)C)=C3Oc3ccc(S(=O)(=O)O)cc3)C(C)(C)c3cc(S(=O)(=O)O)ccc32)C1=O)[C@@H](C)O)C(=O)N[C@@H](CC(C)C)C(=O)N[C@@H](CO)C(=O)N[C@H](C(=O)N[C@@H](CC(C)C)C(=O)N[C@@H](CCCNC(=N)N)C(=O)N[C@@H](Cc1c[nH]cn1)C(=O)N[C@@H](CCC(N)=O)C(=O)N[C@@H](CC(N)=O)C(=O)N[C@@H](CC(C)C)C(=O)N[C@@H](CC(C)C)C(=O)N[C@@H](CCCCN)C(=O)N[C@@H](CCC(=O)O)C(=O)N[C@@H](CC(C)C)C(=O)N[C@@H](CCC(N)=O)C(=O)N[C@@H](CC(=O)O)C(N)=O)[C@@H](C)CC` (stereo partly drawn) [2a-IRDye] (H-C(X1)FETLRGEERILSILRHQNLLKELQD-NH2), the EC50 rises from 0.9 ± 0.35 nM to greater than 100 nM. The first is the more potent here.

Molecule `CC1(C)C(/C=C/C2=C(Oc3ccc(S(=O)(=O)O)cc3)C(=C\C=C3/N(CCCCCC(=O)NCCN4C(=O)CC(SC[C@H](N)C(=O)O)C4=O)c4ccc(S(=O)(=O)O)cc4C3(C)C)/CCC2)=[N+](CCCCS(=O)(=O)O)c2ccc(S(=O)(=O)[O-])cc21` (stereo partly drawn) [Cys-IRDye] has an EC50 greater than 100 nM.
